Experimental data: US9475841B2, “Melanoma antigen peptide and uses thereof” (INSERM (INSTITUT NATIONAL DE LA SANTE ET DE LA RECHERCHE …, priority 2012, dated 2016)

Columns and labels:
Assay in all cases: Cytokine profile of CD4 T cell clone stimulated with cognate peptide (intracellular staining)
Format in all cases: cell-based, human
Settings in all cases: cognate peptide 10 μM, 5 hours
[1] = tested on: CD4 T cell clone 1A5-DRβ1*1101
Description: (§1) Lymphocytes were stimulated for 5 hours in the presence of brefeldin A (10 μg/mL) either with peptide alone (10 μM) in an autopresentation assay or with B-EBV or HLA-class II expressing melanoma cells pulsed 2 hours with the cognate peptide, at a ratio 1:2. In some experiments, blocking mAb against HLA-DP (clone B7.21 from Dr Charron, UMR940, Paris), HLA-DQ (clone SPVL3, Beckman Coulter) or HLA-DR (clone L243, BD Biosciences) were added at a concentration of 12.5 μg/ml. Cells were then stained with APC-conjugated anti-CD4 mAb, fixed with 4% paraformaldehyde, labeled with PE-conjugated anti-cytokine mAb and analyzed by flow cytometry.
(§2) We also documented the T helper profile of each T cell clone, by stimulating the CD4 T cell clones with the cognate peptide, and analyzing cytokine production. All the clones expressed Th1 cytokines (TNFα, IFNγ, IL2 and GM-CSF). On the contrary, these clones differ in their expression of Th2 cytokines. Indeed, the two DQ2 restricted T cell clones (9C12 and 4E2) and the DR1 restricted one (5F9) also strongly express two Th2 cytokines (IL4, and IL13), whereas the DR11-restricted T cell clone only weakly expressed IL4 (Table IV). None of the CD4 T cell expresses IL10 or IL5 at a significant level.

[2] = tested on: CD4 T cell clone 5F9-DRβ1*0101
Description: as §1, §2

[3] = tested on: CD4 T cell clone 9C12-DQβ*0202
Description: as §1, §2

TSREQFLPSEGAACPPWHPS [MELOE-111-30]
Cytokine profile: GM-CSF [1]: GM-CSF^high | Cytokine profile: IFN [1]: IFN^high | Cytokine profile: IL2 [1]: IL2^high | Cytokine profile: IL4 [1]: IL4^low | Cytokine profile: IL5 [1]: IL5^neg | Cytokine profile: IL10 [1]: IL10^neg | Cytokine profile: IL13 [1]: IL13^neg | Cytokine profile: TNF [1]: TNF^high | Cytokine profile: GM-CSF [2]: GM-CSF^high | Cytokine profile: IFN [2]: IFN^high | Cytokine profile: IL2 [2]: IL2^low | Cytokine profile: IL4 [2]: IL4^high | Cytokine profile: IL5 [2]: IL5^neg | Cytokine profile: IL10 [2]: IL10^neg | Cytokine profile: IL13 [2]: IL13^high | Cytokine profile: TNF [2]: TNF^high

SCVGYPDEATSREQFLPSEG (SCVGYPDEATSREQFLPSEC) [MELOE-12-21]
Cytokine profile: GM-CSF [3]: GM-CSF^high | Cytokine profile: IFN [3]: IFN^high | Cytokine profile: IL2 [3]: IL2^high | Cytokine profile: IL4 [3]: IL4^high | Cytokine profile: IL5 [3]: IL5^high | Cytokine profile: IL10 [3]: IL10^neg | Cytokine profile: IL13 [3]: IL13^high | Cytokine profile: TNF [3]: TNF^high
